In ChEMBL document CHEMBL4831506, “Discovery of novel trimethoxyphenylbenzo[d]oxazoles as dual tubulin/PDE4 inhibitors capable of inducing apoptosis at G2/M phase arrest in glioma and lung cancer cells” (Eur J Med Chem, 2021):
Active and inactive are the calls of the source. The calls are words filed in the database; no cut-off is given here.

How the values were obtained:
NCI-H460 = experiment: Antiproliferative activity against human NCI-H460 cells after 48 hrs by MTT assay; format: functional, cell-based; settings: NCI-H460, 48 h
A549 [1] = experiment: Induction of apoptosis in human A549 cells assessed as increase in viable cells at 200 nM measured after 24 hrs by PI/FITC analysis (reference value: 98.4%); format: functional
Tubulin (Homo sapiens) = Tubulin (Homo sapiens) (UniProt P68371+Q9H4B7+P0DPH7+P68366+Q13509+Q71U36+P04350+Q3ZCM7+P07437+P68363+Q9BQE3+Q6PEY2+Q13885+Q9BVA1+Q9BUF5); experiment: Inhibition of tubulin assembly in human A549 cells measured after 24 hrs; format: cell-based
Sus scrofa [2] = organism: Sus scrofa; experiment: Inhibition of pig brain tubulin polymerization at 1 uM by spectrometric method relative to control; format: tissue-based
U-251 [3] = experiment: Cell cycle arrest in human U-251 cells assessed as S phase at 500 nM measured after 24 hrs by propidium iodide staining based flow cytometry analysis (reference value: 18.23%); format: functional
U-251 [4] = experiment: Induction of apoptosis in human U-251 cells assessed as increase in late apoptotic cells at 500 nM measured after 24 hrs by PI/FITC analysis (reference value: 0.311%); format: functional
U-251 [5] = experiment: Induction of apoptosis in human U-251 cells assessed as increase in early apoptotic cells at 500 nM measured after 24 hrs by PI/FITC analysis (reference value: 1.12%); format: functional
A549 [6] = experiment: Induction of apoptosis in human A549 cells assessed as increase in late apoptotic cells at 50 nM measured after 24 hrs by PI/FITC analysis (reference value: 0.955%); format: functional
U-251 [7] = experiment: Cell cycle arrest in human U-251 cells assessed as S phase at 200 nM measured after 24 hrs by propidium iodide staining based flow cytometry analysis (reference value: 18.23%); format: functional
U-251 [8] = experiment: Induction of apoptosis in human U-251 cells assessed as increase in viable cells at 500 nM measured after 24 hrs by PI/FITC analysis (reference value: 98.3%); format: functional
U-251 [9] = experiment: Cell cycle arrest in human U-251 cells assessed as G0/G1 phase at 1000 nM measured after 24 hrs by propidium iodide staining based flow cytometry analysis (reference value: 67.34%); format: functional
MCF7 = experiment: Antiproliferative activity against human MCF7 cells after 48 hrs by MTT assay; format: functional, cell-based; settings: MCF7, 48 h
A549 [10] = experiment: Cell cycle arrest in human A549 cells assessed as S phase at 50 nM measured after 24 hrs by propidium iodide staining based flow cytometry analysis (reference value: 14.78%); format: functional
U-251 [11] = experiment: Induction of apoptosis in human U-251 cells assessed as increase in necrotic cells at 1000 nM measured after 24 hrs by PI/FITC analysis (reference value: 0.301%); format: functional
A549 [12] = experiment: Cell cycle arrest in human A549 cells assessed as G0/G1 phase at 50 nM measured after 24 hrs by propidium iodide staining based flow cytometry analysis (reference value: 79.14%); format: functional
A549 [13] = experiment: Induction of apoptosis in human A549 cells assessed as increase in necrotic cells at 50 nM measured after 24 hrs by PI/FITC analysis (reference value: 0.365%); format: functional
U-251 [14] = experiment: Induction of apoptosis in human U-251 cells assessed as increase in early apoptotic cells at 1000 nM measured after 24 hrs by PI/FITC analysis (reference value: 1.12%); format: functional
U-251 [15] = experiment: Induction of apoptosis in human U-251 cells assessed as increase in apoptotic cells at 500 nM measured after 24 hrs by PI/FITC analysis (reference value: 2.39%); format: functional
Sus scrofa [16] = organism: Sus scrofa; experiment: Inhibition of pig brain tubulin polymerization at 10 uM by spectrometric method relative to control; format: tissue-based
A549 [17] = experiment: Induction of apoptosis in human A549 cells assessed as increase in necrotic cells at 500 nM measured after 24 hrs by PI/FITC analysis (reference value: 0.365%); format: functional
U-251 [18] = experiment: Antiproliferative activity against human U-251 cells after 48 hrs by MTT assay; format: functional, cell-based; settings: U-251, 48 h
A549 [19] = experiment: Cell cycle arrest in human A549 cells assessed as S phase at 200 nM measured after 24 hrs by propidium iodide staining based flow cytometry analysis (reference value: 14.78%); format: functional
A549 [20] = experiment: Cell cycle arrest in human A549 cells assessed as decrease in cdc25C expression by Western blot analysis; format: functional, cell-based; settings: dose 50-500 nM
[21] = target: 3',5'-cyclic-AMP phosphodiesterase 4C (Homo sapiens, UniProt Q08493); experiment: Inhibition of PDE4 CAT (unknown origin)
3',5'-cyclic-AMP phosphodiesterase 4C, sequence (Q08493 whole entry): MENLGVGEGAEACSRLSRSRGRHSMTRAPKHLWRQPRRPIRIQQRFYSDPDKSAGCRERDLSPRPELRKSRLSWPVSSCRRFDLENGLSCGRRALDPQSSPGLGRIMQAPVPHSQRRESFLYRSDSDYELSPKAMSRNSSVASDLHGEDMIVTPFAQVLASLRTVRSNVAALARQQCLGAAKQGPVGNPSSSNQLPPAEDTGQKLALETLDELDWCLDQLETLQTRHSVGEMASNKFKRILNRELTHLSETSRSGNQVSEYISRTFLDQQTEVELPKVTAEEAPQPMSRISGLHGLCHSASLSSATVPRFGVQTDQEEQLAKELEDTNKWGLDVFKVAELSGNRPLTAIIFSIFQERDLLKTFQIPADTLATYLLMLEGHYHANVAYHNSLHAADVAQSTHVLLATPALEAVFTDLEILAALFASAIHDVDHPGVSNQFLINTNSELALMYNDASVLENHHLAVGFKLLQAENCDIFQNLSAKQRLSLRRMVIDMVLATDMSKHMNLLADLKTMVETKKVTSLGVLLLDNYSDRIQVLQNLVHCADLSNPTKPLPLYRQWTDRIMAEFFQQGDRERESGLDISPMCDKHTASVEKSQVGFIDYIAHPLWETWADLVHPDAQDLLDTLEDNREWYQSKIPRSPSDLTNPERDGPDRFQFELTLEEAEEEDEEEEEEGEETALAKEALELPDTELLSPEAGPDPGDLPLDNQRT

U-251 [22] = experiment: Cell cycle arrest in human U-251 cells assessed as S phase at 1000 nM measured after 24 hrs by propidium iodide staining based flow cytometry analysis (reference value: 18.23%); format: functional
A549 [23] = experiment: Induction of apoptosis in human A549 cells assessed as increase in apoptotic cells at 500 nM measured after 24 hrs by PI/FITC analysis (reference value: 1.437%); format: functional
U-251 [24] = experiment: Cell cycle arrest in human U-251 cells assessed as G2/M phase at 200 nM measured after 24 hrs by propidium iodide staining based flow cytometry analysis (reference value: 14.43%); format: functional
A549 [25] = experiment: Induction of apoptosis in human A549 cells assessed as increase in necrotic cells at 200 nM measured after 24 hrs by PI/FITC analysis (reference value: 0.365%); format: functional
A549 [26] = experiment: Induction of apoptosis in human A549 cells assessed as increase in viable cells at 500 nM measured after 24 hrs by PI/FITC analysis (reference value: 98.4%); format: functional
A549 [27] = experiment: Cell cycle arrest in human A549 cells assessed as G2/M phase at 50 nM measured after 24 hrs by propidium iodide staining based flow cytometry analysis (reference value: 6.08%); format: functional
U-251 [28] = experiment: Induction of apoptosis in human U-251 cells assessed as increase in necrotic cells at 500 nM measured after 24 hrs by PI/FITC analysis (reference value: 0.301%); format: functional
A549 [29] = experiment: Induction of apoptosis in human A549 cells assessed as increase in viable cells at 50 nM measured after 24 hrs by PI/FITC analysis (reference value: 98.4%); format: functional
A549 [30] = experiment: Induction of apoptosis in human A549 cells assessed as increase in early apoptotic cells at 50 nM measured after 24 hrs by PI/FITC analysis (reference value: 0.955%); format: functional
A549 [31] = experiment: Induction of apoptosis in human A549 cells assessed as increase in late apoptotic cells at 500 nM measured after 24 hrs by PI/FITC analysis (reference value: 0.955%); format: functional
A549 [32] = experiment: Cell cycle arrest in human A549 cells assessed as G2/M phase at 500 nM measured after 24 hrs by propidium iodide staining based flow cytometry analysis (reference value: 6.08%); format: functional
U-251 [33] = experiment: Induction of apoptosis in human U-251 cells assessed as increase in necrotic cells at 200 nM measured after 24 hrs by PI/FITC analysis (reference value: 0.301%); format: functional
U-251 [34] = experiment: Induction of apoptosis in human U-251 cells assessed as increase in viable cells at 200 nM measured after 24 hrs by PI/FITC analysis (reference value: 98.3%); format: functional

IC50 (NCI-H460): 24 nM | inhibition (Tubulin (Homo sapiens)): Active | IC50 (MCF7): > 25000 nM | IC50 (U-251 [18]): 300 nM | IC50 [21]: 1250 nM
Compound: COc1cc(-c2cccc3nc(-c4ccc5cc[nH]c5c4)oc23)cc(OC)c1OC
Activity (A549 [1]): 79.8% | inhibition (Sus scrofa [2]): 40% | Activity (U-251 [3]): 22.47% | Activity (U-251 [4]): 9.13% | Activity (U-251 [5]): 4.61% | Activity (A549 [6]): 7.23% | Activity (U-251 [7]): 18.32% | Activity (U-251 [8]): 83.1% | Activity (U-251 [9]): 13.54% | Activity (A549 [10]): 24.79% | Activity (U-251 [11]): 1.66% | Activity (A549 [12]): 55.78% | Activity (A549 [13]): 0.603% | Activity (U-251 [14]): 5.18% | Activity (U-251 [15]): 20.98% | inhibition (Sus scrofa [16]): 86% | Activity (A549 [17]): 2.84% | Activity (A549 [19]): 23.43% | Activity (A549 [20]): Dose-Dependent Effect | Activity (U-251 [22]): 14.77% | Activity (A549 [23]): 26.5% | Activity (U-251 [24]): 37.97% | Activity (A549 [25]): 1.61% | Activity (A549 [26]): 70.7% | Activity (A549 [27]): 19.43% | Activity (U-251 [28]): 2.92% | Activity (A549 [29]): 86.9% | Activity (A549 [30]): 5.32% | Activity (A549 [31]): 15.4% | Activity (A549 [32]): 68.09% | Activity (U-251 [33]): 2.01% | Activity (U-251 [34]): 98%
